Values of other authors, collected in article PMC12444550, “Design, Synthesis, and Trypanosomicidal Evaluation of Eugenol-Based Azole Hybrids: Discovery of an In Vitro Active and Selective Compound” (ACS Omega, 2025).

System: T. cruzi epimastigotes
Set-up: method as in Brancaglion and coauthors
Settings: ref Brancaglion and coauthors; read-out: in vitro IC50 against epimastigotes; cited from earlier work

SMILES: CCCc1cc(OC)c2oc(=O)c(C(=O)c3ccc([N+](=O)[O-])cc3)cc2c1 [nitrobenzoyl derivative, 8-methoxy-3-(4-nitrobenzoyl)-6-propyl-2H-cromen-2-one]
- IC50: 28 µM
